This is an account of results in ChEMBL document CHEMBL1201862, “PubChem BioAssay data set” (2004).

For test [1], the target named is T1, 1-phosphatidylinositol 4,5-bisphosphate phosphodiesterase beta-3 (Homo sapiens, UniProt Q01970).
T1 sequence (Q01970 whole entry): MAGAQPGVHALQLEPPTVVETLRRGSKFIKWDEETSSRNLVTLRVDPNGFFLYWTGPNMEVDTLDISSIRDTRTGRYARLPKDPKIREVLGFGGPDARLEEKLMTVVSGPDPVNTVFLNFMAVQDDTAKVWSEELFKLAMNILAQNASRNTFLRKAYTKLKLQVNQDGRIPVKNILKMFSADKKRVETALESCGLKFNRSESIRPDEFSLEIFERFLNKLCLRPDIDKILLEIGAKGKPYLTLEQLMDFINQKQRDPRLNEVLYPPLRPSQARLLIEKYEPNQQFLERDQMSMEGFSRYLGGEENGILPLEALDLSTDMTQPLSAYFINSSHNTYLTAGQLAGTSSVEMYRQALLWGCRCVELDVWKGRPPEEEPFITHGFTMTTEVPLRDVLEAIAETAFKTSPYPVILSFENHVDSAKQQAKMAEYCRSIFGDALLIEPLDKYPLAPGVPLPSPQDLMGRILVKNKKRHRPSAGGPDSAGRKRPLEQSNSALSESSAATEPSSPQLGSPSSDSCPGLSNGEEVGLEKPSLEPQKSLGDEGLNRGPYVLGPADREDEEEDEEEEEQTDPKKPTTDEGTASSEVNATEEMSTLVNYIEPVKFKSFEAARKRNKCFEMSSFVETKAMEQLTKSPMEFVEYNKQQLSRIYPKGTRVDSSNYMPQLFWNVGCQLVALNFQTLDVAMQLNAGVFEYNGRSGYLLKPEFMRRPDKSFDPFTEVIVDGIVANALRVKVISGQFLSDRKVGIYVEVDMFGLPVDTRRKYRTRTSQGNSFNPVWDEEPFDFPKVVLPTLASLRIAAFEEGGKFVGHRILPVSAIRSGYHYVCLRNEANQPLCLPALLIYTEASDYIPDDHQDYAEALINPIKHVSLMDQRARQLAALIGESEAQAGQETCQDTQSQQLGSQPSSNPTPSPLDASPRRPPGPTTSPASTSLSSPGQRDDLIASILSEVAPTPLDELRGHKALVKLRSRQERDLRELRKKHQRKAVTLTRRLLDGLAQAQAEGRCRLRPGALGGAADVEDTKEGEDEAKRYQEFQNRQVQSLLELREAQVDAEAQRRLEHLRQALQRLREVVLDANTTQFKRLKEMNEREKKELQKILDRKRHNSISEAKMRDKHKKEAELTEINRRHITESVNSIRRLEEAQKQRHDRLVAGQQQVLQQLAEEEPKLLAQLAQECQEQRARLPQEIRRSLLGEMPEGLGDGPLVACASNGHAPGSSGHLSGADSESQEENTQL
Nature of the test: Fluorescence-based biochemical high throughput dose response assay to identify inhibitors of phospholipase C isozymes (PLC-B3).

The target in test [2] is T2, 1-phosphatidylinositol 4,5-bisphosphate phosphodiesterase gamma-1 (Homo sapiens, UniProt P19174).
T2 sequence (P19174 whole entry): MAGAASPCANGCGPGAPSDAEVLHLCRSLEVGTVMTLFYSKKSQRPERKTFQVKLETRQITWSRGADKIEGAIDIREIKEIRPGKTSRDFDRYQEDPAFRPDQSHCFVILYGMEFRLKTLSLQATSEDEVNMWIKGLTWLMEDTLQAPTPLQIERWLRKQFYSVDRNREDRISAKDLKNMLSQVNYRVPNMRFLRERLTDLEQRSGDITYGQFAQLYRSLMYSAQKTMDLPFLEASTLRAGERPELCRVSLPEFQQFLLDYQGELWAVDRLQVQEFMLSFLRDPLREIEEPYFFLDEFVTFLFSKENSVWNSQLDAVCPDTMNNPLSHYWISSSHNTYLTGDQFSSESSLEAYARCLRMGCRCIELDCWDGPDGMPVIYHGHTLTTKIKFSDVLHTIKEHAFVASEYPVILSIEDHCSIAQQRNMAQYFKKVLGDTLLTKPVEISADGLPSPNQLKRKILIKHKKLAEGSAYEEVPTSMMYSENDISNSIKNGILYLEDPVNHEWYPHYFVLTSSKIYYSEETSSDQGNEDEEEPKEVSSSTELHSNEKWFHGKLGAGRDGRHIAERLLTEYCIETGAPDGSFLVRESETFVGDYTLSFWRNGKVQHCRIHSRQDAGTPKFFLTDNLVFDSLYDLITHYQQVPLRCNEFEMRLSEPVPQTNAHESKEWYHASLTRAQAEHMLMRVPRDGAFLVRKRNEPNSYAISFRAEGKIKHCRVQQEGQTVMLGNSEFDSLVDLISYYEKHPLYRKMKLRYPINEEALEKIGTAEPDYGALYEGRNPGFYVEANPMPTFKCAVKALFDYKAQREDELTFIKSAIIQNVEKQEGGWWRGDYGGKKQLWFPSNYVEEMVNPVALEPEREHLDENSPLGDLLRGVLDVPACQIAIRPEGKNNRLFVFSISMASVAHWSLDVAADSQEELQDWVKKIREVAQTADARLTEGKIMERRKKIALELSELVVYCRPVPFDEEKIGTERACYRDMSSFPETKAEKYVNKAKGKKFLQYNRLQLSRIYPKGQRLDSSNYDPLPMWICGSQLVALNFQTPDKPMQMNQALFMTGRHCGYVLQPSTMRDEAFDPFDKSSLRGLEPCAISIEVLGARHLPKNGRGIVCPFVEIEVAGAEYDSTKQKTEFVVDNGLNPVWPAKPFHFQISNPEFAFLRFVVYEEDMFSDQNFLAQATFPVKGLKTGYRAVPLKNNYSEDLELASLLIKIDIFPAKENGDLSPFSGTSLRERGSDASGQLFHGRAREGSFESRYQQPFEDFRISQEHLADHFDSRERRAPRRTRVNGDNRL
Nature of the test: Counterscreen for inhibitors of phospholipase C isozymes (PLC-B3): Fluorescence-based biochemical high throughput dose response assay to identify inhibitors of phospholipase C isozymes (PLC-gamma1). (In general: Counterscreens check selectivity or assay interference.)

The next test has as its target Phospholipase A2 (Homo sapiens, UniProt P04054). It is filed as functional.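 Note: confirmatory dose-response counterscreen on phospholipase A2, testing hits that came from an ultra-high-throughput screen for ATG4B inhibitors.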
The target in test [3] is Dual specificity tyrosine-phosphorylation-regulated kinase 1A (Rattus norvegicus, UniProt Q63470). It counts as biochemical, Homo sapiens.
Test [4] can be described thus: HEp-2 cell cytotoxicity, dose response, cytotoxicity control for RSV inhibitor project, HTS (AID 2410). It counts as functional. The following applies: human respiratory syncytial virus.
Test [5] in a line: growth suppression of PTEN-null colon cells, dose response, cell-based, HCT116 PTEN knockout (AID 1047).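 Note: HCT116 colon tumor cells with PTEN knocked out; cells exposed to compound for 60 hours before readout; potency for loss of cell viability measured by luminescence.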 It is filed as functional.
The test system of another test is BJ. Nature of the test: cytotoxicity toward BJ-TERT-LT-ST fibroblasts, dose response, cell-based, RAS-independent, luminescence (AID 1935).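 Note: BJ fibroblasts immortalized with TERT plus LT and ST oncogenes.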 It counts as functional. The following applies: Homo sapiens.
Test [6] can be described thus: Shn3 3'UTR reporter inhibitors, dose response, cell-based, Clone20 osteoblasts, firefly luciferase, cherry-picked (AID 624132).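 Note: firefly luciferase luminescence from reporter carrying the Shn3 3'UTR in osteoblasts.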 It is filed as functional.
Test [7] is described as follows: control 3'UTR Renilla luciferase suppression, dose response, counter-screen for Shn3 inhibitor project, cell-based, Clone20-Shn3RL, cherry-picked (AID 624133). It counts as functional.
In test [8] the target is Sphingosine 1-phosphate receptor 1 (Homo sapiens, UniProt P21453). It is filed as functional.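 Note: Tango beta-arrestin reporter U2OS cells stimulated with S1P near its EC80; inhibitor potency meaning antagonism of receptor activation by the natural agonist.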
In the next test the target is Beta-galactosidase (Escherichia coli, UniProt Q8VNN2). Nature of the test: PubChem AID 485352. It is filed as functional.
A further test relates to Vero. Description: Vero cell cytotoxicity, cytotoxicity control for flavivirus capping enzyme inhibitors (AID 588742). It is filed as functional. The conditions noted are these: Chlorocebus sabaeus.

The structures appear in SMILES notation. Activity calls are given as the source filed them. A value given as a limit tells only on which side of the number the result lay.

Sequence of Phospholipase A2 (P04054 whole entry): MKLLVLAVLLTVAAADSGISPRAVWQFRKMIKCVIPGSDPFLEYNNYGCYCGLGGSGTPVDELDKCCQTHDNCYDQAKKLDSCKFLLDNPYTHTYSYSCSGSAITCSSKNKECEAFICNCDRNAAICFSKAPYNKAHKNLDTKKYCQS
Sequence of Beta-galactosidase (Q8VNN2 whole entry): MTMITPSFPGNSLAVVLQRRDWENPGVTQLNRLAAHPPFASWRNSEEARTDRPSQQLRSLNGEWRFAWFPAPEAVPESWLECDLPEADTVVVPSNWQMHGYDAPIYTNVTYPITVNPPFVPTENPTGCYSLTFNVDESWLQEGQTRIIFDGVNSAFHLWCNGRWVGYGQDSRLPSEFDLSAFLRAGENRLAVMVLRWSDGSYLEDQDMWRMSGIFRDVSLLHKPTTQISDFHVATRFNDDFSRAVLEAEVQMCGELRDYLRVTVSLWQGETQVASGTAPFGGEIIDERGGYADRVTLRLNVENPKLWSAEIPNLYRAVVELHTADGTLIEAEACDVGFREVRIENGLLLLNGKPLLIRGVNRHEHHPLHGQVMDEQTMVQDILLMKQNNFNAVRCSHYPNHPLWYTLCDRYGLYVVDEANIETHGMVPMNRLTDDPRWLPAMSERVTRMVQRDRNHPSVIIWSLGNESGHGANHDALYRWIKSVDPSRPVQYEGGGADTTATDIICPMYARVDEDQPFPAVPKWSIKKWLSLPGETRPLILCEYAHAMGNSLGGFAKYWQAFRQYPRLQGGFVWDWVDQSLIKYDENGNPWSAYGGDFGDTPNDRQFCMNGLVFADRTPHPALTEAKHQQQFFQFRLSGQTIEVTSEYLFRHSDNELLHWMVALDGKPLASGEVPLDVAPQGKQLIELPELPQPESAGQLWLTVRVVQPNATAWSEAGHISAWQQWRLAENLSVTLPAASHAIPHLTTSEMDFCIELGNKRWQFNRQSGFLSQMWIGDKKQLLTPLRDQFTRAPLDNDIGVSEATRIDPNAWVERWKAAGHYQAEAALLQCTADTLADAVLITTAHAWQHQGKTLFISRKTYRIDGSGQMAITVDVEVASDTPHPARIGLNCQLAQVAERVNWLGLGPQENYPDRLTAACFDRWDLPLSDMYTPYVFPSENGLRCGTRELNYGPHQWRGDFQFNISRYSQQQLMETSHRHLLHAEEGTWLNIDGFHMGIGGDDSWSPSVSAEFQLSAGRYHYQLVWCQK
Sequence of Sphingosine 1-phosphate receptor 1 (P21453 whole entry): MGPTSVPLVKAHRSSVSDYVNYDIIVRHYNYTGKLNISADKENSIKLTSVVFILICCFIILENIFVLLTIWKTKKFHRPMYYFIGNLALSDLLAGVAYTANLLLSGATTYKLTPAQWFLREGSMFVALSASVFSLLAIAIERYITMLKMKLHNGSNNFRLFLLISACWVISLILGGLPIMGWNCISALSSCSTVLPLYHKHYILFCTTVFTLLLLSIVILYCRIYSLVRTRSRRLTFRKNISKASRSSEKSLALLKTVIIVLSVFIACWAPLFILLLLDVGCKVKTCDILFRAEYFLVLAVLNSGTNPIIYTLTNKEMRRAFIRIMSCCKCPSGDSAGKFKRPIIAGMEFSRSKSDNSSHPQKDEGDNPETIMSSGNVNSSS

On to `Cc1ccccc1NC1=C/C(=N\S(=O)(=O)c2ccc(C(=O)O)cc2)c2ccccc2C1=O`, for which the figures for the IC50 (in test [1]; in test [2]; at Phospholipase A2) were > 122 µM (inactive), 90.1 µM (inactive) and 15.4 µM (active), respectively. For the same compound, the concentration at half-maximal activity (AC50) (usually the midpoint of the concentration-response curve, whichever way the signal moves) in test [3] was 4.11 µM (active).

With `O=C(Nc1ccc(C#Cc2ccccc2)cc1)C1CC1`, the half-maximal cytotoxic concentration (CC50) (in general, the concentration giving 50% cytotoxicity) in test [4] was 26.9 µM (active).

Consider `Cc1ccc(NC2=C/C(=N/S(=O)(=O)c3cccs3)c3ccccc3C2=O)cc1`, for which, in test [5], the half-maximal effective concentration (EC50) (usually the concentration needed to bring the measured effect to its halfway point) is 3.56 µM (active).

Regarding `COC(=O)C[C@]1(C(=O)OC)CN(C#N)N(c2ccc(Cl)cc2)C12c1ccccc1-c1ccccc12`, in the test on BJ, the EC50 was 2.78 µM (inconclusive). Further, the AC50 was 1.88 µM (active) in test [6] and 1.67 µM (active) in test [7]. Also, in test [8], the half-inhibitory concentration (IC50) – broadly, the concentration that gives 50% inhibition – was 5.39 µM (active).

Turning to `CCCCn1c(NC(=O)c2ccco2)c(C(=O)OCC)c2nc3ccccc3nc21`, the EC50 at Beta-galactosidase was > 40 µM (inactive). For the same compound, the CC50 with Vero was > 40 µM (active).
